Measured values reported in the NIST ThermoML archive (doi:10.1016/j.fluid.2010.02.020).
Values joined by “and” are separate entries in the source; they are usually repeats but may differ in a detail not shown here. Equal values may be shown once. ± gives the expanded uncertainty stated by the source.

Details: for mass density: 101.33 kPa, Liquid, Vibrating tube method; for surface tension liquid-gas: Pendant drop shape

CCCCCCCCn1cc[n+](C)c1.O=S(=O)([N-]S(=O)(=O)C(F)(F)F)C(F)(F)F
mass density (293.15 K): 1326.5 ± 5.3 kg/m3 | mass density (303.15 K): 1317.5 ± 5.3 kg/m3 | surface tension liquid-gas (313 K): 29.2 ± 1.3 mN/m | mass density (313.15 K): 1308.6 ± 5.3 kg/m3 | surface tension liquid-gas (313.2 K): 28.5 ± 1.3 mN/m | mass density (323.15 K): 1299.8 ± 5.2 kg/m3 | surface tension liquid-gas (332.6 K): 27.4 ± 1.1 mN/m | mass density (333.15 K): 1291.2 ± 5.2 kg/m3 | surface tension liquid-gas (333.3 K): 28.2 ± 1.1 mN/m | mass density (343.15 K): 1282.5 ± 5.1 kg/m3 | surface tension liquid-gas (352.8 K): 26.1 ± 1.1 mN/m | mass density (353.15 K): 1273.9 ± 5.1 kg/m3 | surface tension liquid-gas (353.8 K): 27.3 ± 1.1 mN/m | mass density (363.15 K): 1265.3 ± 5.1 kg/m3 | surface tension liquid-gas (372.8 K): 25.2 ± 1.1 mN/m | mass density (373.15 K): 1256.7 ± 5 kg/m3 | surface tension liquid-gas (373.6 K): 26.3 ± 1.1 mN/m | mass density (383.15 K): 1248.1 ± 5 kg/m3 | surface tension liquid-gas (392.9 K): 24 ± 1.1 mN/m | mass density (393.15 K): 1239.5 ± 5 kg/m3 | surface tension liquid-gas (393.6 K): 25.3 ± 1.1 mN/m | mass density (403.15 K): 1230.9 ± 4.9 kg/m3 | surface tension liquid-gas (412.9 K): 23.1 ± 1.1 mN/m | mass density (413.15 K): 1222.2 ± 4.9 kg/m3 | surface tension liquid-gas (413.4 K): 24.3 ± 1.1 mN/m | mass density (423.15 K): 1213.5 ± 4.9 kg/m3 | surface tension liquid-gas (432.8 K): 22.1 ± 1.1 mN/m | mass density (433.15 K): 1204.8 ± 4.8 kg/m3 | surface tension liquid-gas (433.3 K): 23.2 ± 1.1 mN/m | mass density (443.15 K): 1195.9 ± 4.8 kg/m3 | surface tension liquid-gas (452.5 K): 21.5 ± 1 mN/m | mass density (453.15 K): 1187 ± 4.8 kg/m3 | surface tension liquid-gas (453.4 K): 22.1 ± 1 mN/m | mass density (463.15 K): 1178 ± 4.7 kg/m3 | surface tension liquid-gas (472.4 K): 19.7 ± 1 mN/m | mass density (473.15 K): 1168.8 ± 4.7 kg/m3 | surface tension liquid-gas (473.6 K): 20.7 ± 1 mN/m | surface tension liquid-gas (493 K): 20.1 ± 1 mN/m | surface tension liquid-gas (512.6 K): 19.2 ± 1 mN/m

CCCn1cc[n+](C)c1.O=S(=O)([N-]S(=O)(=O)C(F)(F)F)C(F)(F)F
mass density (293.15 K): 1480.5 ± 6 kg/m3 | mass density (303.15 K): 1470.8 ± 5.9 kg/m3 | surface tension liquid-gas (312.9 K): 32.5 ± 1.1 mN/m | mass density (313.15 K): 1461.1 ± 5.9 kg/m3 | mass density (323.15 K): 1451.5 ± 5.8 kg/m3 | mass density (333.15 K): 1441.9 ± 5.8 kg/m3 | surface tension liquid-gas (333.6 K): 31.5 ± 1.1 mN/m | mass density (343.15 K): 1432.4 ± 5.8 kg/m3 | mass density (353.15 K): 1422.9 ± 5.7 kg/m3 | surface tension liquid-gas (353.9 K): 30.2 ± 1.1 mN/m | mass density (363.15 K): 1413.5 ± 5.7 kg/m3 | mass density (373.15 K): 1404 ± 5.6 kg/m3 | surface tension liquid-gas (373.5 K): 28.8 ± 1.1 mN/m | surface tension liquid-gas (374.2 K): 29.1 ± 1.1 mN/m | mass density (383.15 K): 1394.5 ± 5.6 kg/m3 | mass density (393.15 K): 1384.9 ± 5.6 kg/m3 | surface tension liquid-gas (393.5 K): 29.4 ± 1.1 mN/m | surface tension liquid-gas (394.5 K): 28 ± 1.1 mN/m | mass density (403.15 K): 1375.3 ± 5.5 kg/m3 | mass density (413.15 K): 1365.6 ± 5.5 kg/m3 | surface tension liquid-gas (413.6 K): 28.2 ± 1.1 mN/m | surface tension liquid-gas (414.9 K): 27.1 ± 1.1 mN/m | mass density (423.15 K): 1355.8 ± 5.4 kg/m3 | mass density (433.15 K): 1345.9 ± 5.4 kg/m3 | surface tension liquid-gas (433.3 K): 27.6 ± 1.1 mN/m | surface tension liquid-gas (435.2 K): 26.3 ± 1.1 mN/m | mass density (443.15 K): 1335.9 ± 5.4 kg/m3 | mass density (453.15 K): 1325.8 ± 5.3 kg/m3 | surface tension liquid-gas (453.2 K): 26.8 ± 1 mN/m | surface tension liquid-gas (455.5 K): 26.1 ± 1 mN/m | mass density (463.15 K): 1315.6 ± 5.3 kg/m3 | surface tension liquid-gas (473 K): 24.4 ± 1 mN/m | mass density (473.15 K): 1305.1 ± 5.2 kg/m3 | surface tension liquid-gas (475.7 K): 24.6 ± 1 mN/m

CCCCCC[n+]1ccn(C)c1.O=S(=O)([N-]S(=O)(=O)C(F)(F)F)C(F)(F)F
mass density (293.15 K): 1378.1 ± 5.5 kg/m3 | mass density (303.15 K): 1368.9 ± 5.5 kg/m3 | surface tension liquid-gas (313 K): 29.4 ± 1 mN/m | mass density (313.15 K): 1359.8 ± 5.5 kg/m3 | mass density (323.15 K): 1350.8 ± 5.4 kg/m3 | mass density (333.15 K): 1341.8 ± 5.4 kg/m3 | surface tension liquid-gas (333.2 K): 28.1 ± 1 mN/m | mass density (343.15 K): 1332.9 ± 5.4 kg/m3 | mass density (353.15 K): 1324 ± 5.3 kg/m3 | surface tension liquid-gas (353.4 K): 27.2 ± 1 mN/m | mass density (363.15 K): 1315.2 ± 5.3 kg/m3 | mass density (373.15 K): 1306.3 ± 5.2 kg/m3 | surface tension liquid-gas (373.4 K): 26.5 ± 1 mN/m | mass density (383.15 K): 1297.4 ± 5.2 kg/m3 | mass density (393.15 K): 1288.5 ± 5.2 kg/m3 | surface tension liquid-gas (393.5 K): 25.6 ± 1 mN/m | mass density (403.15 K): 1279.6 ± 5.1 kg/m3 | mass density (413.15 K): 1270.6 ± 5.1 kg/m3 | surface tension liquid-gas (413.3 K): 24.8 ± 1 mN/m | mass density (423.15 K): 1261.6 ± 5.1 kg/m3 | mass density (433.15 K): 1252.4 ± 5 kg/m3 | surface tension liquid-gas (433.6 K): 24.2 ± 1 mN/m | mass density (443.15 K): 1243.2 ± 5 kg/m3 | mass density (453.15 K): 1233.9 ± 5 kg/m3 | surface tension liquid-gas (453.4 K): 23.6 ± 1 mN/m | mass density (463.15 K): 1224.5 ± 4.9 kg/m3 | mass density (473.15 K): 1214.9 ± 4.9 kg/m3 | surface tension liquid-gas (473.4 K): 21.8 ± 1 mN/m | surface tension liquid-gas (493.2 K): 20.7 ± 1 mN/m | surface tension liquid-gas (512.7 K): 19.3 ± 1 mN/m | surface tension liquid-gas (532.4 K): 18.5 ± 1 mN/m

CCCCCCCCCCCCn1cc[n+](C)c1.O=S(=O)([N-]S(=O)(=O)C(F)(F)F)C(F)(F)F
mass density (293.15 K): 1249.6 ± 5 kg/m3 | mass density (303.15 K): 1240.9 ± 5 kg/m3 | mass density (313.15 K): 1232.4 ± 4.9 kg/m3 | mass density (323.15 K): 1224 ± 4.9 kg/m3 | mass density (333.15 K): 1215.6 ± 4.9 kg/m3 | surface tension liquid-gas (333.3 K): 26.4 ± 1 mN/m | mass density (343.15 K): 1207.4 ± 4.8 kg/m3 | mass density (353.15 K): 1199.2 ± 4.8 kg/m3 | surface tension liquid-gas (353.6 K): 25.4 ± 1 mN/m | mass density (363.15 K): 1190.9 ± 4.8 kg/m3 | mass density (373.15 K): 1182.8 ± 4.7 kg/m3 | surface tension liquid-gas (373.7 K): 24.5 ± 1 mN/m | mass density (383.15 K): 1174.7 ± 4.7 kg/m3 | mass density (393.15 K): 1166.2 ± 4.7 kg/m3 | surface tension liquid-gas (393.6 K): 23.6 ± 1 mN/m | mass density (403.15 K): 1158.4 ± 4.6 kg/m3 | mass density (413.15 K): 1150.2 ± 4.6 kg/m3 | surface tension liquid-gas (413.7 K): 22.5 ± 1 mN/m | mass density (423.15 K): 1142 ± 4.6 kg/m3 | mass density (433.15 K): 1133.7 ± 4.5 kg/m3 | surface tension liquid-gas (433.6 K): 21.4 ± 1 mN/m | surface tension liquid-gas (453.8 K): 20.4 ± 1 mN/m | surface tension liquid-gas (473.7 K): 19.5 ± 1 mN/m | surface tension liquid-gas (493.3 K): 18.8 ± 1 mN/m | surface tension liquid-gas (512.9 K): 17.8 ± 1 mN/m | surface tension liquid-gas (532.6 K): 16.9 ± 1 mN/m

CCCCCCCn1cc[n+](C)c1.O=S(=O)([N-]S(=O)(=O)C(F)(F)F)C(F)(F)F
mass density (293.15 K): 1349.5 ± 5.4 kg/m3 | mass density (303.15 K): 1340.4 ± 5.4 kg/m3 | mass density (313.15 K): 1331.5 ± 5.3 kg/m3 | mass density (323.15 K): 1322.6 ± 5.3 kg/m3 | mass density (333.15 K): 1313.8 ± 5.3 kg/m3 | mass density (343.15 K): 1305 ± 5.2 kg/m3 | mass density (353.15 K): 1296.3 ± 5.2 kg/m3 | mass density (363.15 K): 1287.6 ± 5.2 kg/m3 | mass density (373.15 K): 1278.9 ± 5.1 kg/m3 | mass density (383.15 K): 1270.1 ± 5.1 kg/m3 | mass density (393.15 K): 1261.4 ± 5.1 kg/m3 | mass density (403.15 K): 1252.6 ± 5 kg/m3 | mass density (413.15 K): 1243.8 ± 5 kg/m3 | mass density (423.15 K): 1235 ± 5 kg/m3 | mass density (433.15 K): 1226.1 ± 4.9 kg/m3 | mass density (443.15 K): 1217 ± 4.9 kg/m3 | mass density (453.15 K): 1208 ± 4.8 kg/m3 | mass density (463.15 K): 1198.7 ± 4.8 kg/m3 | mass density (473.15 K): 1189.4 ± 4.8 kg/m3

CCn1cc[n+](C)c1.O=S(=O)([N-]S(=O)(=O)C(F)(F)F)C(F)(F)F
mass density (293.15 K): 1525 ± 6.1 kg/m3 | mass density (303.15 K): 1515.1 ± 6.1 kg/m3 | surface tension liquid-gas (313 K): 35.2 ± 1.1 mN/m | mass density (313.15 K): 1505.3 ± 6.1 kg/m3 | surface tension liquid-gas (313.2 K): 33.8 ± 1.1 mN/m and 34.7 ± 1.1 mN/m | mass density (323.15 K): 1495.5 ± 6 kg/m3 | surface tension liquid-gas (332.7 K): 34.2 ± 1.1 mN/m | mass density (333.15 K): 1485.8 ± 6 kg/m3 | surface tension liquid-gas (333.3 K): 33.6 ± 1.1 mN/m | mass density (343.15 K): 1476.1 ± 5.9 kg/m3 | surface tension liquid-gas (352.4 K): 33.4 ± 1.1 mN/m | mass density (353.15 K): 1466.4 ± 5.9 kg/m3 | surface tension liquid-gas (353.4 K): 33.4 ± 1.1 mN/m | mass density (363.15 K): 1456.7 ± 5.9 kg/m3 | surface tension liquid-gas (372.7 K): 32.5 ± 1.1 mN/m | mass density (373.15 K): 1447 ± 5.8 kg/m3 | surface tension liquid-gas (373.2 K): 31.5 ± 1.1 mN/m | mass density (383.15 K): 1437.2 ± 5.8 kg/m3 | surface tension liquid-gas (392.9 K): 31.4 ± 1.1 mN/m | mass density (393.15 K): 1427.4 ± 5.7 kg/m3 | surface tension liquid-gas (393.2 K): 31.1 ± 1.1 mN/m | mass density (403.15 K): 1417.5 ± 5.7 kg/m3 | surface tension liquid-gas (412.8 K): 30.5 ± 1.1 mN/m | surface tension liquid-gas (413.1 K): 30.1 ± 1.1 mN/m | mass density (413.15 K): 1407.5 ± 5.7 kg/m3 | mass density (423.15 K): 1397.5 ± 5.6 kg/m3 | surface tension liquid-gas (432.5 K): 29.6 ± 1.1 mN/m | mass density (433.15 K): 1387.3 ± 5.6 kg/m3 | mass density (443.15 K): 1377 ± 5.5 kg/m3 | surface tension liquid-gas (452.7 K): 27.3 ± 1.4 mN/m | surface tension liquid-gas (453 K): 28.7 ± 1.4 mN/m | mass density (453.15 K): 1366.6 ± 5.5 kg/m3 | mass density (463.15 K): 1356 ± 5.4 kg/m3 | surface tension liquid-gas (472.5 K): 25.7 ± 1 mN/m | surface tension liquid-gas (472.7 K): 26.4 ± 1 mN/m | mass density (473.15 K): 1345.2 ± 5.4 kg/m3 | surface tension liquid-gas (512.6 K): 24.6 ± 1 mN/m | surface tension liquid-gas (532.2 K): 23.7 ± 1 mN/m
